# Test results as given in patent US20100311748A1, “HETEROCYCLIC AMIDES USEFUL FOR THE TREATMENT OF CANCER AND PSORIASIS” (ASTRAZENECA AB, priority 2007, published 2010).
# Tested on: Hedgehog pathway
# Test: Hedgehog Pathway Cellular Differentiation Assay (alkaline phosphatase production in C3H10T1/2 cells with Shh ligand)
# Assay type: cell-based
# Conditions: 3 μM compound, Shh ligand conditioned media, 72 h, alkaline phosphatase
# In short: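 C3H10T1/2 cells in DMEM/2% FBS with Shh-conditioned medium were treated 72 h with compound, threefold dilutions from 30 μM to 3 nM. After RIPA lysis, alkaline phosphatase was read with pNp (1 mg/mL, diethanolamine pH 9.8) at 30 °C, absorbance 405 nm. Percent inhibition and IC50 came from absorbance.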
row,SMILES,% Inhibition at 3 μM [%]
1,"Cc1ccc(-c2ncc[nH]2)cc1NC(=O)c1ccc2c(c1)OCCO2 [Example 151, N-[5-(1H-imidazol-2-yl)-2-methyl-phenyl]-2,5-dioxabicyclo[4.4.0]deca-7,9,11-triene-8-carboxamide]",21.9

# Same assay, conditions: Mus musculus, C3H 10T1/2, 3 μM compound, Shh ligand conditioned media, 72 h, alkaline phosphatase
row,SMILES,inhibition at 3 µM [%]
1,"Cc1ccc(-c2nccn2C)cc1NC(=O)c1ccc(OCc2ccccn2)cc1 [Example 13, N-[2-methyl-5-(1-methylimidazol-2-yl)phenyl]-4-(pyridin-2-ylmethoxy)benzamide]",64.9
2,"Cc1cc(C)c(-c2cnc(C)n2C)cc1NC(=O)c1ccc(OCc2ccccn2)cc1 [Example 70, N-[5-(1,2-dimethyl-1H-imidazol-5-yl)-2,4-dimethylphenyl]-4-(pyridin-2-ylmethoxy)benzamide]",78.1
3,"Cc1ccc(-c2cnc(C)n2C)cc1NC(=O)c1ccc(OCc2ccccn2)cc1 [Example 23, N-[5-(1,2-dimethyl-1H-imidazol-5-yl)-2-methylphenyl]-4-(pyridin-2-ylmethoxy)benzamide]",73.6
4,"Cc1ccc(-c2ncc[nH]2)cc1NC(=O)c1ccc(OCc2cc(N3CCOCC3)ccn2)cc1 [Example 89, N-[5-(1H-imidazol-2-yl)-2-methylphenyl]-4-[(4-morpholin-4-ylpyridin-2-yl)methoxy]benzamide]",72.7
5,"Cc1cc(C)c(-c2cn(C)c(C)n2)cc1NC(=O)c1ccc(OCc2ccccn2)cc1 [Example 73, N-(5-(1,2-dimethyl-1H-imidazol-4-yl)-2,4-dimethylphenyl)-4-(pyridin-2-ylmethoxy)benzamide]",85.8
6,"Cc1cc(Cl)c(-c2cn(C)cn2)cc1NC(=O)c1ccc(OCc2ccccn2)cc1 [Example 75, N-[4-chloro-2-methyl-5-(1-methyl-1H-imidazol-4-yl)phenyl]-4-(pyridin-2-ylmethoxy)benzamide]",77.8
7,"Cc1ccc(-c2ncc(C)n2C)cc1NC(=O)c1ccc(OCc2ccccc2C#N)cc1 [Example 49, 4-[(2-cyanophenyl)methoxy]-N-[5-(1,5-dimethylimidazol-2-yl)-2-methyl-phenyl]benzamide]",82
8,"Cc1ccc(-c2nc3ccccc3s2)cc1NC(=O)c1ccc(OCc2ccccn2)cc1 [Example 17, N-(5-benzothiazol-2-yl-2-methyl-phenyl)-4-(pyridin-2-ylmethoxy)benzamide]",53.5
9,"Cc1ccc(-c2nccn2C)cc1NC(=O)c1ccc(OCc2cc(Cl)ccn2)cc1 [Example 91, 4-[(4-chloropyridin-2-yl)methoxy]-N-[2-methyl-5-(1-methyl-1H-imidazol-2-yl)phenyl]benzamide]",80.4
10,"Cc1ccc(-c2cncn2C)cc1NC(=O)c1ccc(OCc2ccccc2C#N)cc1 [Example 52, 4-[(2-cyanophenyl)methoxy]-N-[2-methyl-5-(3-methylimidazol-4-yl)phenyl]benzamide]",79.8
11,"Cc1cn(C)c(-c2ccc(C)c(NC(=O)c3ccc(OCc4ccccn4)cc3)c2)n1 [Example 26, N-[5-(1,4-dimethyl-1H-imidazol-2-yl)-2-methylphenyl]-4-(pyridin-2-ylmethoxy)benzamide]",75.7
12,"Cc1ccc(-c2ccccn2)cc1NC(=O)c1ccc(OCc2ccccn2)cc1 [Example 9, N-(2-methyl-5-pyridin-2-yl-phenyl)-4-(pyridin-2-ylmethoxy)benzamide]",60.5
13,"Cc1ccc(-c2cn(C)cn2)cc1NC(=O)c1ccc(OCc2ccccn2)cc1 [Example 21, N-[2-methyl-5-(1-methyl-1H-imidazol-4-yl)phenyl]-4-(pyridin-2-ylmethoxy)benzamide]",73.4
14,"Cc1ccc(-c2ncc(Cn3cccn3)s2)cc1NC(=O)c1ccc(OCc2ccccn2)cc1 [Example 4, N-[2-methyl-5-[5-(pyrazol-1-ylmethyl)1,3-thiazol-2-yl]phenyl]-4-(pyridin-2-ylmethoxy)benzamide]",65.4
15,"Cc1ccc(-c2nccn2C)cc1NC(=O)c1ccc(OCc2cc(N3CCN(C)CC3)ccc2C#N)cc1 [Example 115, 4-(2-cyano-5-(4-methylpiperazin-1-yl)benzyloxy)-N-(2-methyl-5-(1-methyl-1H-imidazol-2-yl)phenyl)benzamide]",82.8
16,"Cc1ccc(-c2nc3cc([N+](=O)[O-])ccc3[nH]2)cc1NC(=O)c1ccc(OCc2ccccn2)cc1 [Example 14, N-[2-methyl-5-(5-nitro-1H-benzoimidazol-2-yl)phenyl]-4-(pyridin-2-ylmethoxy)benzamide]",79.2
17,"Cc1ccc(-c2ncc[nH]2)cc1NC(=O)c1ccc(OCc2ccc(OCCO)cn2)cc1 [Example 131, N-(5-(1H-imidazol-2-yl)-2-methylphenyl)-4-((5-(2-hydroxyethoxy)pyridin-2-yl)methoxy)benzamide]",72.7
18,"Cc1ccc(-c2nc(-c3ccccc3)c[nH]2)cc1NC(=O)c1ccc(OCc2ccccn2)cc1 [Example 81, N-[2-methyl-5-(4-phenyl-1H-imidazol-2-yl)phenyl]-4-(pyridin-2-ylmethoxy)benzamide]",78.8

row,SMILES,inhibition at 3 µM [%]
1,"COc1ccc(COc2ccc(C(=O)Nc3cc(-c4ncc[nH]4)ccc3C)cc2)nc1 [Example 130, N-(5-(1H-imidazol-2-yl)-2-methylphenyl)-4-((5-methoxypyridin-2-yl)methoxy)benzamide]",91.9
2,"Cc1ccc(-c2cn3ccsc3n2)cc1NC(=O)c1ccc(OCc2ccccn2)cc1 [Example 5, N-[2-methyl-5-(4-thia-1,6-diazabicyclo[3.3.0]octa-2,5,7-trien-7-yl)phenyl]-4-(pyridin-2-ylmethoxy)benzamide]",68.8
3,"Cc1ccc(-c2ccc(N)cn2)cc1NC(=O)c1ccc(OCc2ccccn2)cc1 [Example 6, N-[5-(5-aminopyridin-2-yl)-2-methyl-phenyl]-4-(pyridin-2-ylmethoxy)benzamide]",65.7
4,"Cc1ccc(-c2cn(C)c(C)n2)cc1NC(=O)c1ccc(OCc2ccccn2)cc1 [Example 156, N-[5-(1,2-dimethyl-1H-imidazol-4-yl)-2-methylphenyl]-4-(pyridin-2-ylmethoxy)benzamide]",86.2
5,"Cc1ccc(-c2ncc[nH]2)cc1NC(=O)c1ccc(OCc2ccc(N3CCOCC3)cn2)cc1 [Example 139, N-(5-(1H-imidazol-2-yl)-2-methylphenyl)-4-((5-morpholinopyridin-2-yl)methoxy)benzamide]",84.1
6,"Cc1ccc(-c2ncc[nH]2)cc1NC(=O)c1ccc(N2CCOCC2)nc1 [Example 153, N-[5-(1H-imidazol-2-yl)-2-methyl-phenyl]-6-morpholin-4-yl-pyridine-3-carboxamide]",53.7
7,"Cc1ccc(-c2ncc[nH]2)cc1NC(=O)c1ccc(NC(C)c2ccccn2)cc1 (centres unmarked) [Example 118, N-[5-(1H-imidazol-2-yl)-2-methylphenyl]-4-[(1-pyridin-2-ylethyl)amino]benzamide]",75.4
8,"Cc1ccc(-c2ncc[nH]2)cc1NC(=O)c1ccc(OCc2cc(OCCN3CCCCC3)ccn2)cc1 [Example 95, N-[5-(1H-imidazol-2-yl)-2-methylphenyl]-4-{[4-(2-piperidin-1-ylethoxy)pyridin-2-yl]methoxy}benzamide]",47
9,"Cc1ccc(-c2ncc[nH]2)cc1NC(=O)c1ccc(OCc2cc(N3CCN(CCO)CC3)ccn2)cc1 [Example 90, 4-({4-[4-(2-hydroxyethyl)piperazin-1-yl]pyridin-2-yl}methoxy)-N-[5-(1H-imidazol-2-yl)-2-methylphenyl]benzamide]",61.5
10,"Cc1ccc(-c2ncc[nH]2)cc1NC(=O)c1ccc(C(F)(F)F)nc1 [Example 150, N-[5-(1H-imidazol-2-yl)-2-methyl-phenyl]-6-(trifluoromethyl)pyridine-3-carboxamide]",19.4
11,"Cc1ccc(-c2nccn2C)cc1NC(=O)c1ccc(OCc2ccc(Br)cc2C#N)cc1 [Example 99, 4-[(4-bromo-2-cyanobenzyl)oxy]-N-[2-methyl-5-(1-methyl-1H-imidazol-2-yl)phenyl]benzamide]",29.9
12,"Cc1ccc(-c2ncc[nH]2)cc1NC(=O)c1ccc(OCc2cccc(Br)n2)cc1 [Example 119, N-(5-(1H-imidazol-2-yl)-2-methylphenyl)-4-((6-bromopyridin-2-yl)methoxy)benzamide]",92.4
13,"Cc1ccc(-c2ncc[nH]2)cc1NC(=O)c1ccc(OCc2ccccn2)cn1 [Example 112, N-[5-(1H-imidazol-2-yl)-2-methylphenyl]-5-(pyridin-2-ylmethoxy)pyridine-2-carboxamide]",54.3
14,"COc1cccc(COc2ccc(C(=O)Nc3cc(-c4ncc[nH]4)ccc3C)cc2)n1 [Example 123, N-(5-(1H-imidazol-2-yl)-2-methylphenyl)-4-((6-methoxypyridin-2-yl)methoxy)benzamide]",84.7
15,"Cc1ccc(-c2nc(CO)c[nH]2)cc1NC(=O)c1ccc(OCc2ccccn2)cc1 [Example 88, N-{5-[4-(hydroxymethyl)-1H-imidazol-2-yl]-2-methylphenyl}-4-(pyridin-2-ylmethoxy)benzamide]",84.7
16,"Cc1ccc(-c2ncc[nH]2)cc1NC(=O)c1ccc(CCc2ccccn2)cc1 [Example 108, N-[5-(1H-imidazol-2-yl)-2-methylphenyl]-4-(2-pyridin-2-ylethyl)benzamide]",92.4
17,"COc1cccnc1COc1ccc(C(=O)Nc2cc(-c3ncc[nH]3)ccc2C)cc1 [Example 135, N-(5-(1H-imidazol-2-yl)-2-methylphenyl)-4-((3-methoxypyridin-2-yl)methoxy)benzamide]",76.9
18,"Cc1ccc(-c2ncc[nH]2)cc1NC(=O)c1ccc(OCc2cc(N3CCN(C)CC3)ccn2)cc1 [Example 126, N-[5-(1H-imidazol-2-yl)-2-methylphenyl]-4-{[4-(4-methylpiperazin-1-yl)pyridin-2-yl]methoxy}benzamide]",47.2

# Same assay, conditions: Mus musculus, C3H 10T1/2, Shh ligand conditioned media, 72 h, alkaline phosphatase (pNp, 405 nm)
row,IC50 [nM],SMILES
1,120,"Cc1ccc(-c2ccccn2)cc1NC(=O)c1ccc(OCc2ccccn2)cc1 [Example 9, N-(2-methyl-5-pyridin-2-yl-phenyl)-4-(pyridin-2-ylmethoxy)benzamide]"
